The test system of data set [1] is platelet hyper-aggregation induced by ADP. The data set is described as follows: Inhibition of ADP-induced platelet hyperaggregation in vitro (Born's method, aggregometer ELVI 840). It is filed as cell-based, New Zealand rabbits. The note with it: Oryctolagus cuniculus, 0.5 h, read-out: Inhibition of platelet hyper-aggregation induced by ADP. The procedure: Two separate centrifugations are effected (at 1000 rpm and at 6000 rpm), thus obtaining PRP ([…]) and PPP ([…]); the first is diluted with the second in order to obtain a platelet concentration of 300,000 per mm^3 (the count is effected in a Buerker apparatus). The compounds with a platelet antiaggregating activity of the present invention are added at the desired concentrations and incubated for 30 minutes at 37° C. with the aggregating agents. […] The various compounds represented by the numbers in the first column are identifiable by the numbers in the second column which refer to the examples described below in this specification.

In data set [2] the test system is 3 LL carcinoma cells (Lewis lung carcinoma). The data set is described as follows: Antitumor and antimetastatic activity in mice implanted with 3 LL Lewis lung carcinoma. It is filed as in vivo, male mice of the C57B1/6J strain. The note with it: oral; for antitumoral and antimetastatic activity (in words): in vivo on mice; for No. of metastases: lungs, controls 21.8 ± 4.9; for No. of metastases / Primary Tumor Weight: 25th day after transplant; for Primary Tumor Weight: controls 9087 ± 386. The procedure: This activity is to be seen for instance after administration of doses of between 0.2 mg/kg and 10 mg/kg by the oral route, as illustrated by the following experiments.
1×10^5 3 LL carcinoma cells (Lewis lung carcinoma) are implanted by intramuscular injection in the paws of male mice of the C57B1/6J strain, weighing about 20-22 g. This operation is effected as described in the literature (Poggi A. et al. Cancer Res. 37, 272-277, 1977). The growth of the tumor is observed until the 25th day after transplant. On this day the animals are sacrificed and the primary tumor and lungs are removed in order to evaluate the growth of the primary tumor and the number of metastases. Pharmacological treatment by the oral route begins 2 days before transplant of the tumor and continues until sacrifice. The substances are dissolved in tap water and are changed every 24 hours.
Table 2 reports the results obtained with the two coumarin derivatives 19 and 26, previously mentioned in comparison to Warfarin, the well-known […] and antimetastatic compound, which is also a coumarin derivative. Warfarin's antimetastatic activity is widely documented both experimentally (Zacharski, L. R. et al. Cancer 44, 732-741, 1979 and Poggi, A. et al. Lancet i 163-164, 1978) and clinically (Zacharski, L. R. et al. J. Am. Med. Assoc. 245, 831-835, 1981). […] This effect is measured by the number of metastases (Zacharski, L. R. et al. Cancer 44, 732-741, 1979 and Poggi, A. et al. Lancet i 163-164, 1978).
(§1) The anticoagulating effect measured by the "thrombotest", the antitumor effect measured by the decrease in weight of the primary tumor and the antimetastatic effect shown as the number of metasteses present in the lungs, are reported in Table 2. While the antitumor and antimetastatic effects of Warfarin and the two new products according to the present invention are roughly equal, the strong anticoagulating effect is absent in the two new products of the invention. This is a completely unexpected result.

Data set [3] is described as follows: Acute toxicity in the mouse, oral. The note with it: in vivo, aqueous solution, up to 14 days, Litchfield and Wilcoxon. Set-up: species or system mouse (Swiss). The procedure: Acute toxicity in the mouse: groups of Swiss mice (male+female) are treated with graduated doses ranging from 0.125 g/kg to 5 g/kg of body weight with compounds 19 to 26. The compounds are administered orally by intubation and dissolved in water.
Subsequent death may be immediate or may occur at any time up to 14 days after treatment. The lethal dose 50 (LD50), that is, the dose which causes the death of 50% of the animals, is evaluated by the method of Litchfield and Wilcoxon (J. Pharmacol. Exp. Ther. 96, 99-113, 1949).

For data set [4], the system named is coagulation. The data set is described as follows: Thrombotest on capillary blood (anticoagulating effect). The note with it: oral, controls 31.4 ± 1.7. Format: in vivo, mice (C57B1/6J). The protocol: In a separate experiment, the anticoagulating activity of the compounds is verified on the same strain of mice at the same doses used for antimetastatic activity evaluation.
The effect on coagulation is measured by a thrombotest on capillary blood taken from the retroorbital cavity (Owren, P. A. et al. Lancet ii, 754-758, 1959).
as §1

Data set [5] in a line: Acute toxicity in the rat, oral. Set-up: species or system rat (Sprague Dawley). The note with it: in vivo, aqueous solution, up to 14 days, Litchfield and Wilcoxon. The procedure: Acute toxicity in the rat: groups of Sprague Dawley rats (male+female) are treated with graduated doses ranging from 0.125 g/kg of body weight to 10 g/kg of body weight of the above mentioned compounds in aqueous solution. The compounds are administered orally by intubation. Subsequent death may be immediate or may occur at any time up to 14 days after treatment.
The lethal dose 50 (LD50), that is, the dose which causes the death of 50% of the animals, is evaluated by the method of Litchfield and Wilcoxon (J. Pharmacol. Ex. Ther. 96, 99-113, 1949).

In data set [6] the test system is 3 LL carcinoma cells (Lewis lung carcinoma). The note with it: number of metastases; mice of the C57B1/6J strain; cited from earlier work.
In data set [7] the test system is lung carcinoma. The note with it: cited from earlier work.
Setting [8] is: 1st adminis. 1.5 mg/kg, 2nd adminis. 0.3 mg/kg.
Setting [9] is: 1st adminis. 2.1 mg/kg, 2nd adminis. 0.5 mg/kg.

Like-named read-outs stand apart in the source and are kept apart here.

This is an account of results in patent publication US4737517A, “Coumarin derivatives, pharmaceutical compositions containing the same, and the use thereof in the treatment of cancer” (FIDIA, S.p.A., priority 1983, dated 1988).

The inhibition is the percentage by which the read-out fell short of the control. A word on the LD50: it is the dose at which mortality reaches 50%. Higher therefore signals a less toxic substance. On to `C=CCc1c(O)c(CN(C)C)cc2c(C)cc(=O)oc12.Cl` [Compound 19, 4-methyl-6-dimethylaminomethyl-7-hydroxy-8-allylcumarin hydrochloride], for which, in data set [1] (ADP 20 μg/ml, 100 γ/ml of active compound, rabbit PRP, incubated 30 minutes at 37° C), the inhibition at 100 µg/mL is 40%. The “antitumoral and antimetastatic activity (in words)” value in data set [2] is “antitumoral and antimetastatic activity”. In addition, in data set [2] (setting [8]), the No. of metastases was 11.4 ± 3.3 and the “Primary Tumor Weight” value came out at 6731 ± 533 mg. The molecule further had an LD50 at 336 h in data set [3] of 1210 mg/kg. In data set [4] (setting [8]), this molecule registered a Thrombotest of 29.3 ± 1.7. This molecule also had an LD50 at 336 h in data set [5] of 2000 mg/kg.
Take `C=CCc1c(O)c(CN2CCN(CCO)CC2)cc2c(C)cc(=O)oc12.ClOCl` [Compound 26, 4-methyl-6-[[4-(2-hydroxyethyl)-1-piperazinyl]methyl]-7-hydroxy-8-allylcumarin dichlorohydrate]: the inhibition at 100 µg/mL in data set [1] came out at 23%. Besides, in data set [2], the “antitumoral and antimetastatic activity (in words)” value was “antitumoral and antimetastatic activity”. Besides, in data set [2] (setting [9]), the No. of metastases is given as 9.8 ± 2.8 and the “Primary Tumor Weight” value stood at 6789 ± 349 mg. In data set [3], the LD50 at 336 h was 1950 mg/kg. In data set [4] (setting [9]), this molecule yielded a Thrombotest of 33.4 ± 1.2. This molecule gave an LD50 at 336 h in data set [5] of 3160 mg/kg.
Consider `CC(=O)CC(c1ccccc1)c1c(O)c2ccccc2oc1=O` (centres unmarked) [Warfarin, reference compound], for which the “antimetastatic effect on Lewis lung carcinoma (in words)” value in data set [6] is “has an antimetastatic effect”. Also, the “anticoagulating activity in antitumor therapy (in words)” value in data set [7] (human, in vivo) is reported as “strong anticoagulating activity”. The “survival time in patients with lung carcinoma (in words)” value in data set [7] (in association with chemotherapy and radiation) is reported as “prolongs survival time”. For the same molecule, in data set [2] (doses not given), the No. of metastases is 12.4 ± 0.9 and the “Primary Tumor Weight” value turned out to be 6274 ± 690 mg. Also, the Thrombotest in data set [4] (doses not given) is 180.
